Reference: the Kinase Knowledgebase extract (Sharma et al. 2016)

Assays:
EGFR (human) = EGFR (human) (UniProt P00533); conditions: nih3t3
EGFR = EGFR (UniProt P00533)
EGFR, sequence (P00533 whole entry, looked up): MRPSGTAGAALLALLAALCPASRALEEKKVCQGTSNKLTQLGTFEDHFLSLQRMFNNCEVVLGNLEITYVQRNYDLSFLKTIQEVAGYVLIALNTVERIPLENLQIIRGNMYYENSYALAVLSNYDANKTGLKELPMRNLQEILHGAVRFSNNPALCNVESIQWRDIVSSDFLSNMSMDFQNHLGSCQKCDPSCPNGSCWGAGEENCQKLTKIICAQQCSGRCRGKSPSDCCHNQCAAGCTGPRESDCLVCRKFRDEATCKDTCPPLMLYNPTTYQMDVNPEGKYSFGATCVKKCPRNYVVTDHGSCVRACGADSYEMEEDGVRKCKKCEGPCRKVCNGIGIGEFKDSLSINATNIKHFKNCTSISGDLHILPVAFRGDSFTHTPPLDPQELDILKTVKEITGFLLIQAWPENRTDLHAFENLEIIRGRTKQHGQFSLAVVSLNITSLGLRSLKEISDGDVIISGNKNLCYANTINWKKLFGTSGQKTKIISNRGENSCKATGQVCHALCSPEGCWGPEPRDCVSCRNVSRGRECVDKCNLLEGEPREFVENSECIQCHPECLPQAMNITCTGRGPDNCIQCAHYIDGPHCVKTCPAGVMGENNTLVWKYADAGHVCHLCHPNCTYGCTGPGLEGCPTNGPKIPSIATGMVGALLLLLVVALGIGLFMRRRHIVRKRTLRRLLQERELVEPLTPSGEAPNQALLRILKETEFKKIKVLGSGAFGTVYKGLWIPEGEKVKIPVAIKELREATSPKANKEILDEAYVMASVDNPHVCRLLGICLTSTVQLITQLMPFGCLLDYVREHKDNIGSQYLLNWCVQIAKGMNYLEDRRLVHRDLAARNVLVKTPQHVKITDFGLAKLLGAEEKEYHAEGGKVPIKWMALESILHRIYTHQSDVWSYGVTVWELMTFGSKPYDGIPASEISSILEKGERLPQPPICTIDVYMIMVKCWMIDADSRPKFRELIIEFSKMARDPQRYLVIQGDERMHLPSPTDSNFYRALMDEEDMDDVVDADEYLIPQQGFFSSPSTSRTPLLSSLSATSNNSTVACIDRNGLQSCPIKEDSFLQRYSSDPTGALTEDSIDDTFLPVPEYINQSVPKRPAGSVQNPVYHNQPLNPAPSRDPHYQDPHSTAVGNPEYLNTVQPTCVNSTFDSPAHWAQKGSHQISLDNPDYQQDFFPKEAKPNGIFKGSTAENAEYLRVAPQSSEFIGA

EGFR (human), sequence (P00533 whole entry, looked up): as above

Row | Structure (SMILES) | IC50 (EGFR (human)) [µM] | IC50 (EGFR) [µM]
1 | Cc1[nH]c(/C=C2\C(=O)Nc3ccc(Cl)cc32)c(C)c1CCCN(C)C | 7.49 | > 100
2 | Cc1c(CCC(=O)O)c[nH]c1/C=C1\C(=O)Nc2ccc(I)cc21 | > 50 | 
3 | Cc1[nH]c(/C=C2\C(=O)Nc3cccc(CCO)c32)c(C)c1CCCN(C)C | 25.3 | > 100
4 | Cc1c(CCC(=O)O)c[nH]c1/C=C1\C(=O)Nc2ccccc21 | > 50 | 
5 | Cc1[nH]c(/C=C2\C(=O)Nc3ccc(Cl)cc32)c(C)c1CCC(=O)O | > 50 | 
6 | Cc1c(CCC(=O)O)c[nH]c1/C=C1\C(=O)Nc2ccc(Br)cc21 | > 50 | 
7 | COc1ccc(-c2ccc3c(c2)NC(=O)/C3=C\c2[nH]c(C)c(CCCN(C)C)c2C)cc1 |  | > 100
8 | Cc1ccc2c(c1)/C(=C/c1[nH]c(C)c(CCC(=O)O)c1C)C(=O)N2 | > 50 | 
9 | COc1ccc2c(c1)NC(=O)/C2=C\c1[nH]c(C)c(CCCN(C)C)c1C |  | > 100
10 | Cc1c(CCC(=O)O)c[nH]c1/C=C1\C(=O)Nc2cc(-c3ccccc3)ccc21 | 30.5 | 
11 | Cc1cccc2c1/C(=C/c1[nH]c(C)c(CCC(=O)O)c1C)C(=O)N2 | > 50 | 
12 | Cc1cccc2c1/C(=C/c1[nH]cc(CCC(=O)O)c1C)C(=O)N2 | > 50 | 
13 | COc1ccc(-c2ccc3c(c2)NC(=O)/C3=C\c2[nH]c(C)c(CCCN3CCOCC3)c2C)cc1 |  | > 100
14 | Cc1[nH]c(/C=C2\C(=O)Nc3ccccc32)c(C)c1CCCN1CCOCC1 | > 50 | > 100
15 | COc1ccc2c(c1)/C(=C/c1[nH]c(C)c(CCCN(C)C)c1C)C(=O)N2 |  | > 100
16 | Cc1[nH]c(/C=C2\C(=O)Nc3cc(Cl)ccc32)c(C)c1CCCN(C)C | 25.4 | 86.6
17 | Cc1[nH]c(/C=C2\C(=O)Nc3ccc(S(=O)(=O)N(C)C)cc32)c(C)c1CCCN(C)C | 11.2 | > 100
18 | Cc1[nH]c(/C=C2\C(=O)Nc3cc(-c4ccccc4)ccc32)c(C)c1CCC(=O)O | 32.7 | 
19 | Cc1[nH]c(/C=C2\C(=O)Nc3ccc(I)cc32)c(C)c1CCC(=O)O | > 50 | 
20 | Cc1ccc2c(c1)/C(=C/c1[nH]cc(CCC(=O)O)c1C)C(=O)N2 | > 50 | 
21 | Cc1cccc2c1/C(=C/c1[nH]c(C)c(CCCN(C)C)c1C)C(=O)N2 | 20.2 | > 100

Next, values leading:

Row | IC50 (EGFR (human)) [µM] | IC50 (EGFR) [µM] | Structure (SMILES)
22 | > 50 |  | Cc1[nH]c(/C=C2\C(=O)Nc3cc(O)ccc32)c(C)c1CCC(=O)O
23 | 29.8 | > 100 | Cc1[nH]c(/C=C2\C(=O)Nc3ccc(S(=O)(=O)N4CCOCC4)cc32)c(C)c1CCCN(C)C
24 | 12.6 | > 100 | Cc1[nH]c(/C=C2\C(=O)Nc3ccccc32)c(C)c1CCCN(C)C
25 | 4.1 | > 100 | Cc1[nH]c(/C=C2\C(=O)Nc3ccc(Br)cc32)c(C)c1CCCN(C)C
26 | > 50 |  | Cc1[nH]c(/C=C2\C(=O)Nc3ccc(Br)cc32)c(C)c1CCC(=O)O
27 | 12 |  | Cc1c(CCC(=O)O)c[nH]c1/C=C1\C(=O)Nc2ccc(Cl)cc21
28 |  | > 100 | Cc1[nH]c(/C=C2\C(=O)Nc3ccc(S(=O)(=O)NC(C)C)cc32)c(C)c1CCCN(C)C
29 | 44.6 | > 100 | Cc1[nH]c(/C=C2\C(=O)Nc3ccc(Br)cc32)c(C)c1CCCN1CCOCC1
30 |  | > 100 | COc1cccc(-c2ccc3c(c2)NC(=O)/C3=C\c2[nH]c(C)c(CCCN3CCOCC3)c2C)c1
31 |  | > 100 | COc1ccccc1-c1ccc2c(c1)NC(=O)/C2=C\c1[nH]c(C)c(CCCN2CCOCC2)c1C
32 | > 50 |  | Cc1c(CCC(=O)O)c[nH]c1/C=C1\C(=O)Nc2cc(Br)ccc21
33 | > 50 | > 100 | Cc1[nH]c(/C=C2\C(=O)Nc3cc(-c4ccccc4)ccc32)c(C)c1CCCN1CCOCC1
34 | 6.59 | > 100 | Cc1[nH]c(/C=C2\C(=O)Nc3ccc(S(N)(=O)=O)cc32)c(C)c1CCCN(C)C
35 | 4 | > 100 | Cc1[nH]c(/C=C2\C(=O)Nc3cc(-c4ccccc4)ccc32)c(C)c1CCCN(C)C
36 | 25.4 | > 100 | Cc1ccc2c(c1)/C(=C/c1[nH]c(C)c(CCCN(C)C)c1C)C(=O)N2
37 | > 50 |  | Cc1c(CCC(=O)O)c[nH]c1/C=C1\C(=O)Nc2cc(Cl)ccc21
